This is an account of results in US6797461B2, “Tryptase substrates and assay for tryptase activity using same” (Promega Corporation, priority 2000, dated 2004).

Residues, ends and D or L forms follow the SMILES beside them. *: point of attachment. ACC = NC(=O)Cc1cc(=O)oc2cc(N*)ccc12

Common to all, as to format: biochemical
In experiment [1] the target is T1, recombinant human β-II tryptase (lung tryptase) (Homo sapiens, N132K).
T1 construct: Secreted mature βI- and βII-tryptases were purified to homogeneity; made in house; host or cells: Pichia pastoris GS115
Briefly: Single substrate kinetic analysis of fluorogenic ACC substrates, lung (β-II) tryptase. The method, then:
(§1) βI- and βII-tryptase concentrations ranged from 5 nM to 15 nM. The final concentration of substrate ranged from 5 μM to 200 μM; the concentration of DMSO in the assay was less than 5%. Hydrolysis of ACC substrates was monitored fluorometrically with an excitation wavelength of 380 nm and an emission wavelength of 460 nm on a Fluoromax-2 spectrofluorimeter.
(§2) Tryptase activity was monitored at 30° C. in assay buffer containing 100 mM HEPES, pH 7.5, 10% w/v glycerol, and 0.1 mg/ml heparin. Substrate stock solutions were prepared in DMSO. The final concentration of substrate ranged from 5 μM to […], the concentration of DMSO in the assay was less than 5%. Tryptase concentration was 5 nM.
(§3) Hydrolysis of ACC substrates was monitored fluorometrically with an excitation wavelength of 380 nm and emission wavelength of 450 nm on a Fluoromax-2 spectrofluorimeter. The amino-terminus of each polypeptide was acetylated.
(§4) To quantitate tryptase βI and βII dependence on extended substrate specificity, several peptide substrates were synthesized and the kinetic constants determined for each of the enzymes. […] All of these effects are manifested in the Km term, not the kcat term.
(§5) Kinetic parameters were independently obtained for both recombinant β-I and β-II tryptases against rational substitutions in the substrates at P2-P4 positions.

Experiment [2] concerns the target T2, recombinant human β-I tryptase (skin tryptase) (Homo sapiens, UniProt Q15661).
T2 construct: Secreted mature βI- and βII-tryptases were purified to homogeneity; made in house; host or cells: Pichia pastoris
Put plainly: Single substrate kinetic analysis of fluorogenic ACC substrates, skin (β-I) tryptase. On the procedure:
as §1, §2, §3, §4, §5

Experiment [3] concerns non-tryptase proteolysis in human serum. Briefly: Non-tryptase proteolytic activities in serum with protease inhibitors (FIG. 9). The note with it: 25 μg/ml, 30 minutes at room temperature, Ac-PRNK-ACC 100 μM. The method, then:
Human recombinant β-I tryptase (Promega) was two-fold serially diluted in human serum from 10,000 pg to 190 pg/ml. Aprotinin, Soybean trypsin inhibitor (SBTI) or anti-trypsin was added to each dilution at 25 μg/ml and allowed to incubate at room temperature for 30 minutes. An uninhibited serum standard curve was similarly created. 100 μl of each treated and untreated serum dilution was pipetted in triplicate to a microtiter well plate. Ac-PRNK-ACC (SEQ. ID. NO: 12) was added to 100 μM and the plate incubated at room temperature for 10 minutes prior to reading at an excitation wavelength of 355 nm and emission wavelength of 460 nm.

Setting [4] is: Lung (β-II) Tryptase, 30° C., 100 mM HEPES pH 7.5, 10% glycerol, 0.1 mg/ml heparin.
Setting [5] is: Skin (β-I) Tryptase, 30° C., 100 mM HEPES pH 7.5, 10% glycerol, 0.1 mg/ml heparin.

T2 sequence (Q15661 31-275): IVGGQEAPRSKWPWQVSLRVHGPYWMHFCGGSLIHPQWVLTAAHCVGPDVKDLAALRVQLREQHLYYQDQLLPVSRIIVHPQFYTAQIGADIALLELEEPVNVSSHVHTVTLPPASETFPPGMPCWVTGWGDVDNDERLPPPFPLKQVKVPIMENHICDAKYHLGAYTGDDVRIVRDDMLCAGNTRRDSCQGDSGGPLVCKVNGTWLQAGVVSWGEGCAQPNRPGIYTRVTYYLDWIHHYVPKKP
T1 sequence (Q15661 31-275 N132K): as the sequence (Q15661 31-275) above, with N102K counted along it

Broadly, the Km is the concentration of substrate that gives half-maximal velocity. A word on the kcat: it is the maximal rate divided by the concentration of active sites. As to “Ac-PANK-ACC: acetylated tetrapeptide P-A-N-K with C-terminal 7-amino-4-carbamoylmethyl-coumarin leaving group”, in experiment [1] (setting [4]), the Km is 110 ± 9.8 µM and the kcat stood at 20.27 ± 0.48 s⁻¹. Also, in experiment [2] (setting [5]), the Km was 133 ± 15.6 µM and the kcat worked out at 19.06 ± 0.64 s⁻¹.
As for `CC(=O)N1CCC[C@H]1C(=O)N[C@@H](CCCNC(=N)N)C(=O)N[C@@H](CC(N)=O)C(=O)N[C@@H](CCCNC(=N)N)C(=O)Nc1ccc2c(CC(N)=O)cc(=O)oc2c1` [Ac-PRNR-ACC] (Ac-PRNR-{ACC}), the Km in experiment [1] (setting [4]) came to 16.5 ± 2.7 µM; in experiment [2] (setting [5]), 18.6 ± 2.6 µM. Also, the “activity relative to Ac-PRNK-ACC substrate (kcat/Km)” value is 70-90% in experiment [1] (tryptase βII, range stated over tryptase βI and βII); 70-90% in experiment [2] (tryptase βI, range stated over tryptase βI and βII).
On to `CC(=O)N1CCC[C@H]1C(=O)N[C@@H](CCCNC(=N)N)C(=O)N[C@@H](CC(N)=O)C(=O)N[C@@H](CCCCN)C(=O)Nc1ccc2c(CC(N)=O)cc(=O)oc2c1` [Ac-PRNK-ACC, Acetyl-Prolyl-Arginyl-Asparaginyl-Lysyl-aminoacetamide coumarin] (Ac-PRNK-{ACC}), for which the Michaelis-Menten constant (Km) was determined as 8.9 ± 0.9 µM in experiment [1] (setting [4]) and 14.5 ± 1.9 µM in experiment [2] (setting [5]).
Taken in the same sequence, the figures for `CC(=O)N1CCC[C@H]1C(=O)N[C@@H](CCCNC(=N)N)C(=O)N[C@H](C(=O)N[C@@H](CCCCN)C(=O)Nc1ccc2c(CC(N)=O)cc(=O)oc2c1)[C@@H](C)O` [Ac-PRTK-ACC] (Ac-PRTK-{ACC}) were 14.7 ± 1.4 µM and 23.4 ± 2.3 µM.
For the compound aprotinin, the “effect on intrinsic fluorescence associated with non-tryptase proteolysis in serum” value in experiment [3] is “significantly and specifically diminished”.
